Reference: patent publication US8933107B2, “Pesticide thiazolyloxy substituted phenylamidine derivatives” (Bayer Cropscience AG, priority 2005, dated 2015)

Tests used:
[1] = tested on: Erysiphe graminis f. sp. hordei; experiment: In vivo preventive test on Erysiphe gramini (powdery mildew on barley); conditions: Blumeria graminis, 168 h, 1000 ppm of active ingredient, evaluated 7 days after inoculation, read-out: efficacy
[2] = tested on: Puccinia recondita f. Sp. tritici; experiment: In vivo preventive test on Puccinia recondita f. Sp. tritici (wheat brown rust); conditions: topical, 240 h, 1000 ppm of active ingredient, evaluated 10 days after inoculation, read-out: efficacy
Sphaerotheca fuliginea = experiment: In vivo protective test on Sphaerotheca fuliginea (cucumbers); conditions: Podosphaera fuliginea, 168 h, 100 ppm of active ingredient, evaluated 7 days after inoculation, read-out: efficacy
Heliotis virescens = Heliotis virescens test (HELIVI spray application); format: in vivo; conditions: soybean leaf sections, concentration and time not stated
Podosphaera leucotricha = experiment: In vivo protective test on Podosphaera leucotricha (apples); conditions: topical, 240 h, 100 ppm of active ingredient, evaluated 10 days after inoculation, read-out: efficacy
physchem = conditions: reversed-phase HPLC column (C 18)
Alternaria solani = experiment: In vivo protective test on Alternaria solani (leaf spot of tomato); conditions: 168 h, 500 ppm of active ingredient, evaluated 7 days after inoculation, read-out: efficacy

| SMILES | pest or weed control at 1000 ppm [1] [%] | pest or weed control at 1000 ppm [2] [%] | pest or weed control at 100 ppm (Sphaerotheca fuliginea) [%] | activity (mortality of eggs) (Heliotis virescens) | pest or weed control at 100 ppm (Podosphaera leucotricha) [%] | chromatographic logP (physchem) | pest or weed control at 500 ppm (Alternaria solani) [%] |
| --- | --- | --- | --- | --- | --- | --- | --- |
| Cc1cc(Oc2nc(Cl)c(Br)s2)c(C)cc1/N=C/N(C)C(C)C [Compound 1.11] | ≥ 70 | ≥ 70 | ≥ 70 | good activity | ≥ 70 | 2.22 | – |
| Cc1cc(Oc2nc(Cl)c(C)s2)c(C)cc1/N=C/N(C)C(C)C [Compound 1.23] | ≥ 70 | ≥ 70 | – | good activity | – | 1.94 | – |
| CCN(C)/C=N/c1cc(C)c(Oc2nc(C(C)C)ns2)cc1C [Compound 2.3] | ≥ 70 | ≥ 70 | ≥ 70 | – | ≥ 70 | 1.74 | ≥ 70 |
